The text below walks through data of patent US20240100053A1, “PHARMACEUTICAL COMPOSITION” (priority 2021, published 2024).

A value given as a limit tells only on which side of the number the result lay.

One data set deals with FGFR1-3. The following applies: general statement in the description, no test shown; cited from earlier work.
The test system of a further data set is phosphorylation of H2A.X. Description: DNA damage by phosphorylation of H2A.X (immunofluorescence). It is filed as cell-based. The following applies: incubation time increased from 3 days to 7 days; FIG. 7. How it is done: BLU9931-treated cells were incubated with anti-γHA2.X mouse monoclonal antibody at 4° C. overnight. Cells were treated with Alexa-Fluor-conjugated secondary antibodies and nuclear staining was performed with DAPI.

The test system of data set [1] is PK-1 cells and PK-45P cells. Description: Cytotoxicity by FACS using annexin V and PI. It is filed as cell-based. The following applies: 2 μM, FIG. 3B.
A further data set deals with PK-45P cells. In words: Cell proliferation by ATP assay, FGFR4-low PK-45P cells. It is filed as cell-based. The following applies: PK-45P cells (low FGFR4); 250 nM to 2 μM; 72 hours; FIG. 3A. The protocol:
(§1) After 72 hours of incubation, the effect on cell proliferation was examined by ATP assay.

In data set [2] the test system is PK-1 cells. Description: Cell proliferation by ATP assay, FGFR4-high PK-1 cells. It is filed as cell-based. The following applies: PK-1 cells (high FGFR4); 250 nM, 500 nM, 1 μM or 2 μM; 72 hours; volume-dependent manner; FIG. 3A. How it is done:
as §1

The subject of data set [3] is PK-1 cells. Description: Cellular aging: morphology and SA-β-Gal staining. The data set is classed as cell-based. The following applies: 2 μM. The protocol:
In this example, an aging of cells by BLU9931 was examined. […] This morphological change was considered to be due to cellular aging. The present inventors measured the activity of senescence-associated β-galactosidase (SA-β-Gal), a marker of cellular aging.
After staining, nuclear staining was performed with DAPI.

For data set [4], the system named is ERK, AKT, and STAT3 downstream of FGF19/FGFR4 signaling. Description: Immunoblotting of ERK, AKT, STAT3 in PK-1 cells. The data set is classed as cell-based. The following applies: 2 μM, FIG. 4.
Data set [5] concerns PK-1 cells. Description: Cell invasion, Corning Matrigel Invasion Chamber. The data set is classed as cell-based. As to conditions: 2 μM, 16 hours, FIG. 5. The protocol:
1×10^5 cells/500 μL of PK-1 cells were seeded on top of the insert.

Data set [6] deals with ERK, AKT, and STAT3 downstream of FGF19/FGFR4 signaling. In words: Immunoblotting of ERK, AKT, STAT3 in PK-45P cells. The data set is classed as cell-based. The following applies: FIG. 4.
For data set [7], the system named is PK-1 cells and PK-45P cells. Description: Cell cycle by FACS. It is filed as cell-based. As to conditions: after addition of BLU9931, FIG. 3C.

Consider `C=CC(=O)Nc1cccc(C)c1Nc1ncc2cc(-c3c(Cl)c(OC)cc(OC)c3Cl)ccc2n1` [BLU9931], for which, in the data set on FGFR1-3, the “inhibition of FGFR1-3” value is reported as “does not inhibit”. Also, the “DNA damage of the cells” value with phosphorylation of H2A.X is “progressed”. Further, in [1], the “apoptosis, necrosis, or cell damage observed in cells” value is on record as at most 2% and the cytotoxicity result was “no significant effects”. Moreover, in the data set with PK-45P cells, the cell proliferation entry was “no effect”. Moreover, the cell proliferation result in the data set on PK-1 cells [2] is “suppressed”. The “number of SA-β-Gal positive cells compared to the control cells” value with PK-1 cells [3] (FIG. 6) is listed as “increased”. Also, the “cell morphology compared to the control cells” value in the data set on PK-1 cells [3] (PK-1 cells, 1 week, FIG. 6A) was “larger and flattened”. Further, in data set [4], the “expression of AKT” value is given as “decreased”, the “expression of ERK” value is on record as “decreased” and the “expression of STAT3” value is given as “decreased”. Further, in the data set with PK-1 cells [5], the cell invasion entry is on record as “inhibited”. Moreover, in data set [6], the “expression of AKT” value was “not decreased”, the “expression of ERK” value is given as “not decreased” and the “expression of STAT3” value is on record as “not decreased”. Also, the “number of cells in S phase” value in data set [7] (20.7% without) is on record as 13.5%. Further, the “number of cells in G0/G1 phase” value in data set [7] (60.7% without) is 70.1%.
